Results taken from PubChem BioAssay (NCI).
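Assay format: 96-well plates, 48-hour exposure. TGI denotes the concentration required for complete inhibition of growth.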

Columns and labels:
Assay in all cases: inhibition of tumour cell growth, NCI panel, 48 h
HCT-15 colon = tested on: HCT-15 colon
HOP-62 NSCLC = tested on: HOP-62 NSCLC
HOP-92 NSCLC = tested on: HOP-92 NSCLC
K-562 leukemia = tested on: K-562 leukemia
LOX IMVI melanoma = tested on: LOX IMVI melanoma
M14 melanoma = tested on: M14 melanoma
MALME-3M melanoma = tested on: MALME-3M melanoma
NCI-H226 lung = tested on: NCI-H226 lung
NCI-H460 lung = tested on: NCI-H460 lung
NCI-H522 lung = tested on: NCI-H522 lung
OVCAR-4 ovarian = tested on: OVCAR-4 ovarian
OVCAR-8 ovarian = tested on: OVCAR-8 ovarian
SK-MEL-2 melanoma = tested on: SK-MEL-2 melanoma
SK-MEL-5 melanoma = tested on: SK-MEL-5 melanoma
SK-OV-3 ovarian = tested on: SK-OV-3 ovarian
SW-620 colon = tested on: SW-620 colon
U251 CNS = tested on: U251 CNS
UO-31 renal = tested on: UO-31 renal
BT-549 breast = tested on: BT-549 breast
OVCAR-3 ovarian = tested on: OVCAR-3 ovarian

| SMILES | TGI (HCT-15 colon) [µM] | TGI (HOP-62 NSCLC) [µM] | TGI (HOP-92 NSCLC) [µM] | TGI (K-562 leukemia) [µM] | TGI (LOX IMVI melanoma) [µM] | TGI (M14 melanoma) [µM] | TGI (MALME-3M melanoma) [µM] | TGI (NCI-H226 lung) [µM] | TGI (NCI-H460 lung) [µM] | TGI (NCI-H522 lung) [µM] | TGI (OVCAR-4 ovarian) [µM] | TGI (OVCAR-8 ovarian) [µM] | TGI (SK-MEL-2 melanoma) [µM] | TGI (SK-MEL-5 melanoma) [µM] | TGI (SK-OV-3 ovarian) [µM] | TGI (SW-620 colon) [µM] | TGI (U251 CNS) [µM] | TGI (UO-31 renal) [µM] | TGI (BT-549 breast) [µM] | TGI (OVCAR-3 ovarian) [µM] |
| --- | --- | --- | --- | --- | --- | --- | --- | --- | --- | --- | --- | --- | --- | --- | --- | --- | --- | --- | --- | --- |
| O=C1CCCCC1C1(O)C(=O)Nc2cc(F)ccc21 (configuration not stated) | > 100 | > 100 | > 100 | > 100 | > 100 | > 100 | > 100 | > 100 | > 100 | > 100 | > 100 | > 100 | > 100 | > 100 | > 100 | > 100 | > 100 | > 100 |  |  |
| CCOC(=O)CSc1[nH]c2nc(C)nc(Cl)c2c1C#N | > 10 | > 10 | > 10 | > 10 | > 10 | > 10 | > 10 |  |  |  | > 10 | > 10 |  | > 10 | > 10 | > 10 |  |  |  |  |
| Oc1c(Cl)ccc2cccnc12 | > 100 | 59.6 |  | 7.56 | 29.7 | > 100 | > 100 | 71.2 | 88 | 7.78 | > 100 | > 100 |  | > 100 | > 100 | > 100 | > 100 | 41.1 | > 100 | > 100 |
| CC(C)CC(=O)N1CCN(C(=O)CC(C)C)c2ccccc21 |  | > 100 | > 100 | > 100 | > 100 |  | > 100 |  | > 100 | > 100 |  | > 100 | > 100 |  | > 100 | > 100 | > 100 | > 100 |  | > 100 |
| Cn1c(=O)c2c(ncn2CCCCn2ccnc2[N+](=O)[O-])n(C)c1=O | > 100 | > 100 |  | > 100 | > 100 | > 100 | > 100 | > 100 | > 100 | > 100 | > 100 | > 100 | > 100 | > 100 |  | > 100 | > 100 | > 100 |  | > 100 |
| COc1ccc(C2Cc3cc(OC)c(OC)c(OC)c3C2=O)cc1 (configuration not stated) | > 100 | > 100 |  | > 100 | > 100 | > 100 | > 100 | > 100 | > 100 |  | > 100 | > 100 | > 100 | > 100 | > 100 | > 100 | > 100 | > 100 |  | > 100 |
| COc1ccc(NC(=O)CSc2nnc(Cc3ccccc3)o2)cc1 | > 100 | > 100 |  | > 100 | > 100 | > 100 | > 100 | > 100 | > 100 | > 100 | > 100 | > 100 | > 100 | > 100 | > 100 | > 100 | > 100 | > 100 |  | > 100 |
| COC(=O)C(C(=O)C(=O)Nc1c(Cl)cc([N+](=O)[O-])cc1Cl)c1nc2cc(C)c(C)cc2[nH]c1=O (configuration not stated) | > 100 | > 100 | > 100 | > 100 | > 100 | > 100 | > 100 | > 100 | > 100 | > 100 | > 100 | > 100 | > 100 |  | > 100 | > 100 | > 100 | > 100 |  | > 100 |
| CNC(=S)NNC(=O)c1c(C)nc2sccn12 | > 100 | > 100 | > 100 | > 100 | > 100 |  | > 100 | > 100 | > 100 | > 100 |  | > 100 | > 100 | > 100 | > 100 | > 100 | > 100 |  |  | > 100 |
| O=S1(=O)COc2ccccc2-c2ncncc21 | > 100 | > 100 | > 100 | > 100 | > 100 | > 100 | > 100 | > 100 | > 100 | > 100 | > 100 | > 100 |  | > 100 | > 100 | > 100 | > 100 | > 100 |  | > 100 |
| Fc1ccc(C2(CCCN3CCc4[nH]c5cc(F)ccc5c4C3)OCCO2)cc1 | 31 | 25.7 | 10.2 | 18.3 | 25.4 | 7.15 | 25.9 | 38.6 | 24.1 |  | 26.7 | 33.9 |  | 23.5 | 26.7 | 27.7 | 28.1 | 10.8 |  |  |
| Cn1c(=O)c2[nH]c(/N=N\n3ccc4ccccc43)nc2n(C)c1=O | > 100 | > 100 |  | > 100 | > 100 | > 100 | > 100 | > 100 | > 100 | > 100 | > 100 | > 100 |  | > 100 | > 100 | > 100 | > 100 | > 100 | > 100 | > 100 |
| CCOC(=O)[C@H](Cc1ccccc1)NC(=O)c1nc[nH]c1[N+](=O)[O-] | > 100 | > 100 |  | > 100 | > 100 | > 100 | > 100 | > 100 | > 100 | > 100 | > 100 | > 100 | > 100 | > 100 | > 100 | > 100 | > 100 | > 100 |  | > 100 |
| CSc1nc2nc(C)c(C)nc2c(=O)[nH]1 | > 100 | > 100 | > 100 | > 100 | > 100 | > 100 | > 100 |  | > 100 | > 100 | > 100 | > 100 | > 100 | > 100 | > 100 | > 100 | > 100 | > 100 |  | > 100 |
| CSc1sc(C)cc1-c1nsc(=O)o1 | > 100 |  | > 100 | > 100 | > 100 | > 100 | > 100 |  | > 100 | > 100 | > 100 |  |  | > 100 |  | > 100 | > 100 | > 100 |  |  |
| CSc1nc(C)cc(N(C)c2ccccc2)n1 | > 100 | > 100 |  | > 100 | > 100 | > 100 | > 100 | 93.9 | > 100 | > 100 | > 100 | 93 | > 100 | 56.2 | > 100 | > 100 | > 100 | > 100 |  | 97.3 |
| C=CC1(c2ccc(Cl)c(Cl)c2)OCCO1 | > 100 | 22.8 | > 100 | > 100 | > 100 | > 100 | > 100 | > 100 | > 100 | > 100 | > 100 | > 100 | > 100 | > 100 | > 100 | > 100 | > 100 | > 100 |  | > 100 |
| O=C(CC(=O)C(=O)CC(=O)OCc1ccccc1)OCc1ccccc1 | > 100 | > 100 | > 100 | > 100 |  | > 100 | > 100 |  |  | > 100 | > 100 | > 100 | > 100 | > 100 | > 100 | > 100 | > 100 | 75.7 |  |  |
| O=C(CN1CCOCC1)c1ccc2[nH]c(=O)oc2c1 | > 100 | > 100 |  | > 100 | > 100 | > 100 | > 100 | > 100 | > 100 |  |  | > 100 | > 100 | > 100 | > 100 | > 100 | > 100 | > 100 | > 100 | > 100 |
| C/C(=C/CNc1ncnc2c1ncn2CCC(=O)O)CO |  | > 100 | > 100 | > 100 | > 100 | > 100 | > 100 | > 100 | > 100 | > 100 | > 100 | > 100 |  | > 100 | > 100 | > 100 |  | > 100 |  | > 100 |
| CC(=O)Oc1ccn2nc(C)c(Cc3c(C)nn4ccc(OC(C)=O)cc34)c2c1 | > 100 | > 100 | > 100 | > 100 | > 100 | > 100 | > 100 | > 100 | > 100 | > 100 | > 100 | > 100 | > 100 | > 100 |  | > 100 | > 100 |  |  | > 100 |
| CC1=NN(c2cccc(Cl)c2)C(=N/c2nc3ccccc3s2)/C1=C\C=C\c1ccccc1 | > 100 | > 100 |  | > 100 | > 100 | > 100 |  | > 100 | > 100 | 92.3 | > 100 | > 100 |  | 59.2 | > 100 | > 100 |  | > 100 |  | 78.9 |
| CCN(CC)C(=O)C1=C(C)NC(C)=C(C(=O)N(CC)CC)C1 | > 100 | > 100 | > 100 | > 100 | > 100 | > 100 | > 100 |  | > 100 | > 100 | > 100 |  | > 100 | > 100 | > 100 | > 100 | > 100 | > 100 |  | > 100 |
| COC(=O)C(CCC1(C)OCCO1)C(C)=O (configuration not stated) | > 100 | > 100 |  | > 100 | > 100 | > 100 | > 100 | > 100 | > 100 | > 100 | > 100 | > 100 | > 100 | > 100 | > 100 | > 100 | > 100 | > 100 |  | > 100 |
| COC1=C(C)C(=O)C2C(C1=O)C(c1ccc(OC)c(OC)c1)[C@H]2C (some centres not stated) | > 100 | > 100 | > 100 | > 100 | > 100 | > 100 | > 100 | > 100 | > 100 | > 100 | > 100 | > 100 | > 100 | > 100 | > 100 | > 100 | > 100 | > 100 |  | > 100 |
| O=C1OC(C2Cc3cc4c(cc3C2=O)CCC4)c2ccccc21 (configuration not stated) | > 100 | > 100 |  | > 100 | > 100 | > 100 | > 100 | 58.6 | > 100 | > 100 | > 100 | > 100 | > 100 | > 100 | > 100 | > 100 | > 100 | > 100 |  | > 100 |
| Cc1ccc(/C=C/C(=O)c2sc(C(N)=S)nc2C)cc1 | > 100 | > 100 | > 100 | > 100 | > 100 |  | > 100 | > 100 | > 100 | > 100 |  | > 100 | > 100 | > 100 | > 100 | > 100 | > 100 | > 100 |  | > 100 |
| COc1cccc(N=N/C(=N/NC(=O)c2cc(Cl)ccc2O)c2ccc(N(CCC#N)CCC#N)cc2C)c1 | > 100 | > 100 |  | > 100 |  | > 100 | 48.7 | > 100 | > 100 | 31.9 | > 100 | 55.3 | > 100 | > 100 | > 100 |  | > 100 | > 100 | > 100 | 6.48 |
